Results: US5663182A, “Antipsychotic method” (priority 1996, dated 1997)
pIC50: −log10 of the molar value. Where a name gives a salt, the structure may show the parent alone.

Assays:
Rats = assay: Conditioned avoidance behavior in rats; assay type: in vivo, rat; details: screening dose 3.0 mg/kg s.c. 30 min before session
From the text: In a conditioned avoidance test, animals learn to respond during a conditioned stimulus in order to avoid mild shock presentation. A response during the conditioned stimulus is termed an avoidance respone, a response during shock is termed an escape response; a response failure is when the animal fails to respond during either the conditioned stimlus or the shock presentation and is indicative of motor impairment. […] Antipsychotic drugs decrease the percentage of avoidance responses without interfering with the ability of the animal to respond since the animals do emit escape responses. The percentage of response failures is considered a measure of motor impairment.
Rats were required to press a response lever in an experimental chamber in order to avoid or escape foot-shock. Each experimental session consisted of 50 trials. During each trial, the chamber was illuminated and a tone presented for a maximum of 10 sec. A response during the tone immediately terminated the tone and the houselight, ending the trial. In the absence of a response during the tone alone, tone+foot-shock (2.0 mA) was presented for a maximum of 10 sec. A response during shock presentation immediately terminated the shock, the tone and the houselight, ending the trial.
For drug screening, a dose of 3.0 mg/kg was administered s.c. 30 min before the start of the experimental session.

muscarinic receptors = assay: 3H-oxotremorine-M binding assay; details: 3 nM 3H-oxotremorine-M, rat cerebral cortical membranes, 15 min 25° C.; read-out: Inhibition of 3H-Oxo
Description: Each compound was tested to determine the affinity of the compound for the muscarinic receptors using the following procedure.
For each in vitro binding, male Sprague-Dawley (Harlan Sprague-Dawley, Indianapolis, Ind.) rats weighing from about 100 to about 150 grams each were sacrificed by decapitation. The brains were quickly removed and the cerebral cortex were dissected from the brain. The cerebral cortex tissue was homogenized in 10 volumes of 0.32 M sucrose and […] about 10 minutes at about 1000 x g. The supernatant was centrifuged at about 12,000 x g for about 10 minutes and the resulting pellet was resuspended in 20 mM tris-Cl, pH 7.4. The resuspended pellet was centrifuged again for about 10 minutes at about 50,000 x g. The resulting homogenate was preincubated for about 10 minutes at about 25° C. and centrifuged again for about 10 minutes at about 50,000 x g. The pellet was resuspended at 1 gram of pellet per 3 ml of buffer and frozen at about -80° C. until used.
The aforementioned homogenates mixture was incubated for about 15 minutes at about 25° C. and then the homogenates were filtered through glass filters (Whatman, GF/C) with vacuum. The filters were washed 3 times with about 2 ml of cold tris-Cl buffer, and placed in scintillation vials containing about 10 ml of scintillation fluid (Ready Protein+, Beckman, Fullerton, Calif.). Radioactivity trapped on the filters was determined by liquid scintillation spectrometry. Nonspecific binding was determined using 1 μM atropine. […] DeLean, A. et al. Am.

| Structure (SMILES) | Conditioned Avoidance % Avoidance Responses (Rats) [%] | pIC50 (muscarinic receptors) | Conditioned Avoidance % Avoidance Responses (Rats; 3 mg/kg) [%] |
| --- | --- | --- | --- |
| CCCCOc1nsnc1[C@H]1CN2CCC[C@H]1C2 (relative stereo) [Compound 120, Exo-6-(3-butoxy-1,2,5-thiadiazol-4-yl)-1-azabicyclo[3.2.1]octane oxalate] | 27 | 9.05 | – |
| CC(C)CCSc1nsnc1[C@H]1CN2CCC[C@H]1C2 (relative stereo) [Compound 77, Exo-6-(3-isopentylthio-1,2,5-thiadiazol-4-yl)-1-azabicyclo[3.2.1]octane] | 85 | 8.57 | – |
| CCCCCCOc1nsnc1[C@H]1CN2CCC[C@H]1C2 (relative stereo) [Compound 122, Exo-6-(3-hexyloxy-1,2,5-thiadiazol-4-yl)-1-azabicyclo[3.2.1]octane oxalate] | 1 | 8.68 | – |
| CCCCSc1nsnc1[C@H]1CN2CCC[C@H]1C2 (relative stereo) [Compound 30, Exo-6-(3-butylthio-1,2,5-thiadiazol-4-yl)-1-azabicyclo[3.2.1]octane oxalate] | 32 | 9.40 | – |
| Cc1nnc(SCCCCSc2nsnc2C2CN3CCC2CC3)s1 (stereo not drawn) [Compound 107, oxalate] | 52 | 9.00 | – |
| N#CCSc1nsnc1C1CN2CCC1CC2.O=C(O)C(=O)O (stereo not drawn) [Compound 103, 3-(3-Cyanomethylthio-1,2,5-thiadiazol-4-yl)-1-azabicyclo[2.2.2]octane oxalate] | 51 | 8.57 | – |
| CC(C)CCCSc1nsnc1[C@H]1CN2CCC[C@H]1C2 [Compound 157, (+)-Exo-(5R,6R)-6-(3-isohexylthio-1,2,5-thiadiazol-4-yl)-1-azabicyclo[3.2.1]-octane (+) L-tartrate] | 12 | 8.00 | – |
| CCCCOc1nsnc1C1CN2CCC1CC2.O=C(O)C(=O)O (stereo not drawn) [Compound 46, 3-(3-Butoxy-1,2,5-thiadiazol-4-yl)-1-azabicyclo[2.2.2]octane oxalate] | 30 | 8.80 | – |
| CCCSc1nsnc1C1CN2CCCC1C2 (single isomer, unassigned; (+)) [Compound 113, (+)-Exo-6-(3-propylthio-1,2,5-thiadiazol-4-yl)-1-azabicyclo[3.2.1]octane (+) L-tartrate] | – | 9.10 | 19 |
| Cn1nnnc1SCCCCSc1nsnc1C1CN2CCC1CC2 (stereo not drawn) [Compound 106, oxalate] | 55 | 8.55 | – |
| CC(C)CCCSc1nsnc1[C@H]1CN2CCC[C@H]1C2 (relative stereo) [Compound 76, Exo-6-(3-isohexylthio-1,2,5-thiadiazol-4-yl)-1-azabicyclo[3.2.1]octane oxalate] | 28 | 8.11 | – |
| CSc1nsnc1[C@H]1CN2CCC[C@H]1C2 (relative stereo) [Compound 74, Exo-6-(3-methylthio-1,2,5-thiadiazol-4-yl)-1-azabicyclo[3.2.1]octane oxalate] | 22 | 8.85 | – |
| N#Cc1ccc(CSc2nsnc2[C@H]2CN3CCC[C@H]2C3)cc1 (relative stereo) [Compound 82, Exo-6-(3-(4-cyanobenzylthio)-1,2,5-thiadiazol-4-yl)-1-azabicyclo[3.2.1]octane oxalate] | 24 | 8.89 | – |
| CC(C)CCCSc1nsnc1[C@@H]1CN2CCC[C@@H]1C2 [Compound 158, (-)-Exo-6-(3-isohexylthio-1,2,5-thiadiazol-4-yl)-1-azabicyclo[3.2.1]octane oxalate] | 47 | 8.00 | – |
| CCCCCSc1nsnc1[C@H]1CN2CCC[C@H]1C2 (relative stereo) [Compound 31, Exo-6-(3-pentylthio-1,2,5-thiadiazol-4-yl)-1-azabicyclo[3.2.1]octane oxalate] | 1 | 8.74 | – |
| O=C(O)/C=C/C(=O)O.c1ccc(OCCSc2nsnc2C2CN3CCC2CC3)cc1 (stereo not drawn) [Compound 102, 3-(3-(2-Phenoxyethylthio)-1,2,5-thiadiazol-4-yl)-1-azabicyclo[2.2.2]octane fumarate] | 3 | 8.35 | – |
| FC(F)(F)CCCSc1nsnc1C1CN2CCCC1C2 (single isomer, unassigned; (+)) [Compound 167, (+)-Exo-6-(3-(4,4,4-trifluorobutylthio)-1,2,5-thiadiazol-4-yl)-1-azabicyclo-[3.2.1]octane oxalate] | – | 9.12 | 56 |
| CCCCSc1nsnc1C1CN2CCCC1C2 (single isomer, unassigned) [Compound 111, (-)-Exo-6-(3-butylthio-1,2,5-thiadiazol-4-yl)-1-azabicyclo[3.2.1]octane (+) L-tartrate] | – | 9.00 | 8 |
| CCOc1nsnc1C1CN2CCC1CC2.O=C(O)/C=C/C(=O)O (stereo not drawn) [Compound 9, 3-(3-Ethoxy-1,2,5-thiadiazol-4-yl)-1-azabicyclo[2.2.2]octane fumarate] | 65 | 8.68 | – |
| CCCCSc1nsnc1C1CN2CCC1CC2.O=C(O)C(O)C(O)C(=O)O (single isomer, unassigned) [Compound 56, (+) 3-(3-Butylthio-1,2,5-thiadiazol-4-yl)-1-azabicyclo[2.2.2]octane (-)D-tartrate] | 6 | 9.40 | – |
| CSc1nsnc1C1CN2CCC1CC2.O=C(O)C(=O)O (stereo not drawn) [Compound 131, 3-(3-Methylthio-1,2,5-thiadiazol-4-yl)-1-azabicyclo[2.2.2]octane oxalate] | 53 | 8.55 | – |
| CCCCSc1nsnc1C1CN2CCCC1C2 (single isomer, unassigned) [Compound 112, (+)-Exo-6-(3-butylthio-1,2,5-thiadiazol-4-yl)-1-azabicyclo[3.2.1]octane (-) D-tartrate] | – | 9.22 | 2 |
| CCCCSc1nsnc1C1CN2CCC1CC2.O=C(O)/C=C/C(=O)O (stereo not drawn) [Compound 13, 3-(3-Butylthio-1,2,5-thiadiazol-4-yl)-1-azabicyclo[2.2.2]octane fumarate] | 18 | 8.72 | – |
| CCCCCCSc1nsnc1[C@H]1CN2CCC[C@H]1C2 (relative stereo) [Compound 29, Exo-6-(3-hexylthio-1,2,5-thiadiazol-4-yl)-1-azabicyclo[3.2.1]octane oxalate] | 29 | 8.92 | – |
| CCCSc1nsnc1[C@H]1CN2CCC[C@H]1C2 (relative stereo) [Compound 58, Exo-6-(3-propylthio-1,2,5-thiadiazol-4-yl)-1-azabicyclo[3.2.1]octane oxalate] | 41 | 9.10 | – |
| CCCCCOc1nsnc1[C@H]1CN2CCC[C@H]1C2 (relative stereo) [Compound 59, Exo-6-(3-pentyloxy-1,2,5-thiadiazol-4-yl)-1-azabicyclo[3.2.1]octane oxalate] | 12 | 9.00 | – |
| CCCOc1nsnc1[C@H]1CN2CCC[C@H]1C2 (relative stereo) [Compound 119, Exo-6-(3-propoxy-1,2,5-thiadiazol-4-yl)-1-azabicyclo[3.2.1]octane oxalate] | 29 | 9.05 | – |
| CCSc1nsnc1C1CN2CCC1CC2.O=C(O)C(=O)O (stereo not drawn) [Compound 52, 3-(3-Ethylthio-1,2,5-thiadiazol-4-yl)-1-azabicyclo[2.2.2]octane oxalate] | 63 | 8.74 | – |
| CCCSc1nsnc1C1CN2CCC1CC2.O=C(O)C(=O)O (stereo not drawn) [Compound 53, 3-(3-Propylthio-1,2,5-thiadiazol-4-yl)-1-azabicyclo[2.2.2]octane oxalate] | 41 | 9.05 | – |
| CCSc1nsnc1[C@H]1CN2CCC[C@H]1C2 (relative stereo) [Compound 32, Exo-6-(3-ethylthio-1,2,5-thiadiazol-4-yl)-1-azabicyclo[3.2.1]octane oxalate] | 46 | 8.89 | – |
